Assay results: US12115229B2, “Nanosystems for controlled transport of active molecules for diagnostic, prognostic and therapeutic purposes” (FIDIA FARMACEUTICI S.P.A., priority 2015, dated 2024)

Test system: tumour cell line 4T1 (breast cancer)
Test: In vitro MTT cytotoxicity assay, 4T1
Assay type: cell-based
Description: The cytotoxic activity of Doxo-Hyalusphere was tested on tumour cell lines 4T1 (breast cancer) and A549 (lung cancer), using the in vitro MTT assay.
For the purpose of the test, cell line 4T1 was cultured in RPMI medium (Gibco) and A549 in DMEM (Gibco). 10% FBS (foetal bovine serum, Gibco), 1% L-glutamine (Gibco) and 1% penicillin/streptomycin (Gibco) were added to both culture media at the temperature of 37° C. in the presence of 5% CO2.
The cells were plated in 24-well microplates (Nunc) (50000 cells per well in 500 μl of medium). After 12 hours, 100 μl of culture medium containing the various conditions studied was added to each well: • 1) Nanoparticles with PEG (PEG-NP); • 2) Nanoparticles with rHyal_Sk (Hyal-NP); • 3) Doxorubicin in solution (Free DOX); • 4) Doxorubicin bonded to nanoparticles (DOX-NP) • 5) Doxo-HyaluSpheres (DOX-Hyal-NP),
The nanoparticle concentrations were established at 40000 per cell, and the plates were incubated for 24 and 96 hours. […]
Metabolic activity was evaluated after 30 minutes by reading the optical density (OD) with an ELISA Reader (Bio-Rad) spectrophotometer at the wavelength of 570 nm. […] The fraction of viable cells was determined on the basis of the ratio between the mean optical density of the treated samples and that of the untreated control sample.

Compound: COc1cccc2c1C(=O)c1c(O)c3c(c(O)c1C2=O)C[C@@](O)(C(=O)CO)C[C@@H]3O[C@H]1C[C@H](N)[C@H](O)[C@H](C)O1 [Free-DOX, Doxorubicin]
- tumour cell survival compared with the doxorubicin nanosystems (free doxorubicin 0.75 μg/mL): Quantitatively identical results
- cell death (free drug equivalent to 3 nM (1.6 ng/mL), 24 and 96 hours): did not lead to cell death
